What was measured:
[1] = test system: River Chriesbach biofilm suspension
[2] = test system: River Mönschaltorfer Aa biofilm suspension
[3] = test system: River Glatt biofilm suspension
[4] = test system: River Chriesbach biofilm suspension (100%, 10%, 1%)
[5] = test system: River Chriesbach biofilm suspension (100%)
[6] = test system: lake Greifensee water and three rivers
[7] = test system: River Chriesbach river water
[8] = test system: River Chriesbach biofilm suspensions

For `O=C(O)c1ccccc1` [benzoic acid, reference compound], the “removal of benzoic acid after 8 h” value [1] was 72%, the “removal of benzoic acid after 24 h” value [1] was 100% and the “removal of benzoic acid after 8 h” value [2] was 41%. For the same molecule, the “removal of benzoic acid after 24 h” value [2] was 84%, the “removal of benzoic acid after 8 h” value [3] was 3% and the “removal of benzoic acid after 24 h” value [3] was 75%. The “removal of benzoic acid after 1 day, 1% density” value [4] was 62%, the “removal of benzoic acid after 1 day, 10% density” value [4] was 77% and the “removal of benzoic acid after 1 day, 100% density” value [4] was 97%. The “removal of benzoic acid within 4 h” value [5] was 94-100% and the “biotransformation during incubation in surface waters” value [6] was “degraded within hours”.
[D-Asp3]MC‐(H4)YR [[D-Asp3]MC-(H4)YR] was tested, and the “removal within 3 days” value [1] was 86%, the “1d removal, 1% biofilm” value [4] was 6% and the “1d removal, 10% biofilm” value [4] was 31%. The “1d removal, 100% biofilm” value [4] was 94%, the “Half-lives (h), 100% biofilm” value [4] was 7.6 h and the “Lag-time (h), 1% biofilm” value [4] was 108.8 h. For the same molecule, the “Lag-time (h), 10% biofilm” value [4] was 56.4 h, the “Lag-time (h), 100% biofilm” value [4] was 5.8 h and the “half-life, 1% biofilm” value [4] was 120 h. For the same molecule, the “half-life, 10% biofilm” value [4] was 62.4 h, the “1d removal, River water” value [7] was -24% and the “Lag-time (h), River water” value [7] was 168.0 h. For the same molecule, the “degradation in ambient river water” value [7] was “detectable degradation”, the “half-life, river water” value [7] was 170 h and the “1.3d removal, 2% metabolite” value [5] was 100%. The “1.3d removal, 10% metabolite” value [5] was 100%, the “1.3d removal, 100% metabolite” value [5] was 94% and the “Half-lives (h), 100% metabolite” value [5] was 11.0 h. The “Lag-time (h), 100% metabolite” value [5] was 1.1 h and the “biodegradability in biofilm suspensions (in words)” value [8] was “biodegradable”.

Source: article PMC12490008 (Environmental Science & Technology, 2025)
